# Laboratory results reported in patent US10993933B2, “Oral dosage forms of bendamustine” (ASTELLAS DEUTSCHLAND GMBH, priority 2010, dated 2021).
# Structures can show the parent of a compound that is named as a salt.
# Tests used:
# [1] = cited from earlier work
# [2] = Bendamustine hydrochloride solubility in carriers (HPLC of supernatant); format: physicochemical
# Experimental: Due to the necessity to determine if part of the bendamustine hydrochloride added to the vehicle is dissolved, in order to verify a possible degradation, an analytical procedure, from sample preparation to its analysis, was developed.
# Essentially, it consisted in the preparation of a supersaturated solution of bendamustine hydrochloride in the oil: the minimum amount of bendamustine hydrochloride suitable to generate sedimentation of solid particle on the bottom of the vessel was added to the oil warmed at 40° C.; this solution was electromagnetically stirred for several days (about 4) at room temperature and then centrifuged at 3000 rpm for 15 minutes. The supernatant was analysed by HPLC versus a solution of bendamustine hydrochloride working standard (0,551 mg/ml).
# Essentially, it consisted in the preparation of a supersaturated solution of bendamustine hydrochloride in the vehicle: the minimum amount of bendamustine hydrochloride suitable to generate sedimentation of solid particle on the bottom of the vessel was added to the oil heated to about 5° C. above its melting point; this solution was kept in static condition at this temperature overnight, to allow sedimentation on the bottom. The supernatant was analysed by HPLC versus a solution of API working standard (0.551 mg/ml).
# In table 21.a below, the results of the analysis are reported expressed as mg of bendamustine hydrochloride completely dissolved in about 1 g of solution of the carrier selected.
# Further samples for the solubility evaluation were prepared by adding, under stirring, a quantity of active ingredient (API) suitable to generate a phase segregation to a determined amount of each carrier. The samples were prepared at a temperature slightly above the melting point of each carrier (except for liquid vehicles) and kept at this temperature for about 5 hrs (estimated manufacturing process time). Where applicable, each sample was centrifuged to accelerate phase segregation; an amount of the supernatant, corresponding to the filling weight of a capsule (about 600 mg), was withdrawn and evaluated for assay to determine the amount of API actually dissolved.
# Each solubility value is related to a specific temperature, corresponding to the value set for the filling into capsules (see table 14).
# [3] = Solubility of bendamustine hydrochloride in water and organic solvents; format: physicochemical
# Description: Therefore it is not surprising that the oral bendamustine compositions, as investigated by Preiss et al. and Weber gave rise to relatively poor bioavailability results and a large inter-individual variability.
# [4] = B6D2F1-mice, absorption from the gastro-intestinal tract; cited from earlier work
# [5] = carrier CREMOPHOR A6 (Semisolid at room temperature), suspension weight 1015.3 mg
# [6] = carrier CREMOPHOR A25 (Semisolid at room temperature), suspension weight 995.6 mg
# [7] = carrier CREMOPHOR EL (Liquid at room temperature), suspension weight 1026.8 mg
# [8] = carrier CREMOPHOR RH40 (Semisolid at room temperature), suspension weight 1000.4 mg
# [9] = carrier LABRAFAC PG (Liquid at room temperature), suspension weight 1961.5 mg
# [10] = carrier LABRAFIL M1944 CS (Liquid at room temperature), suspension weight 1011.7 mg
# [11] = carrier LABRAFIL M2125 (Liquid at room temperature), suspension weight 765.2 mg
# [12] = carrier LAUROGLYCOL 90 (Liquid at room temperature), suspension weight 993.9 mg
# [13] = carrier LAUROGLYCOL FCC (Liquid at room temperature), suspension weight 1934.8 mg
# [14] = carrier MIGLYOL 810 (Liquid at room temperature), suspension weight 602.8 mg
# [15] = carrier MIGLYOL 812 (Liquid at room temperature), suspension weight 1044.1 mg
# [16] = carrier MIGLYOL 829 (Liquid at room temperature), suspension weight 1865.0 mg
# [17] = carrier MIGLYOL 840 (Liquid at room temperature), suspension weight 599.9 mg
# [18] = carrier PLUROL oleique CC497 (Liquid at room temperature), suspension weight 1005.8 mg
# [19] = carrier PLURONIC L44 NF INH (Liquid at room temperature), suspension weight 1987.1 mg
# [20] = carrier SOFTIGEN 701 (Liquid at room temperature), suspension weight 1079.0 mg
# [21] = carrier SOFTISAN 645 (Liquid at room temperature), suspension weight 1014.0 mg
# [22] = carrier TRANSCUTOL HP (Liquid at room temperature), suspension weight 1003.1 mg
smiles,measurement,setting,value
Cn1c(CCCC(=O)O)nc2cc(N(CCCl)CCCl)ccc21 [bendamustine hydrochloride],mean oral bioavailability,"[1]; 7 patients, oral capsules vs intravenous, 4.2-5.5 mg/kg",57%
same,time to maximal plasma levels after oral administration,"[1]; patients, oral capsules of 25 mg, 250-350 mg",≤ 1 h
same,Solubility,"[2]; carrier BRIJ C2 (Semisolid), T 45 ° C.",0.004 mg API/mg Solution
same,Solubility,"[2]; carrier BRIJ L4 (Liquid), T 25 ° C.",0.008 mg API/mg Solution
same,Solubility,"[2]; carrier BRIJ L23 (Solid), T 45 ° C.",0.004 mg API/mg Solution
same,Solubility,"[2]; carrier BRIJ O10 (Semisolid), T 45 ° C.",0.007 mg API/mg Solution
same,Solubility,"[2]; carrier BRIJ O20 (Semisolid), T 45 ° C.",0.006 mg API/mg Solution
same,Solubility,"[2]; carrier BRIJ S10 (Solid), T 42 ° C.",0.003 mg API/mg Solution
same,Solubility,"[2]; carrier BRIJ S20 (Solid), T 50 ° C.",0.008 mg API/mg Solution
same,Solubility,"[2]; carrier BRIJ S721 (Solid), T 45 ° C.",0.004 mg API/mg Solution
same,% API,[2]; [5],0.00%
same,API recovered,[2]; [5],0.00 mg
same,% API,[2]; [6],0.21%
same,API recovered,[2]; [6],2.10 mg
same,% API,[2]; [7],0.5%
same,API recovered,[2]; [7],5.13 mg
same,% API,[2]; [8],0.77%
same,API recovered,[2]; [8],7.72 mg
same,Solubility,"[2]; carrier GELUCIRE 44/14 (Semisolid), T 45 ° C.",0.004 mg API/mg Solution
same,Solubility,"[2]; carrier GLYCEROX HE (Liquid), T 25 ° C.",0.005 mg API/mg Solution
same,% API,[2]; [9],0.001%
same,API recovered,[2]; [9],0.01 mg
same,% API,[2]; [10],0.04%
same,API recovered,[2]; [10],0.38 mg
same,% API,[2]; [11],0.02%
same,API recovered,[2]; [11],0.17 mg
same,% API,[2]; [12],0.06%
same,API recovered,[2]; [12],0.61 mg
same,% API,[2]; [13],0.02%
same,API recovered,[2]; [13],0.33 mg
same,% API,[2]; [14],0.01%
same,API recovered,[2]; [14],0.04 mg
same,% API,[2]; [15],0.003%
same,API recovered,[2]; [15],0.03 mg
same,% API,[2]; [16],0.001%
same,API recovered,[2]; [16],0.03 mg
same,% API,[2]; [17],0.01%
same,API recovered,[2]; [17],0.06 mg
same,Solubility,"[2]; carrier MIRJ S8 (Semisolid), T 42 ° C.",0.010 mg API/mg Solution
same,Solubility,"[2]; carrier MIRJ S40 (Solid), T 50 ° C.",0.005 mg API/mg Solution
same,Solubility,"[2]; carrier MIRJ S100 (Semisolid), T 50 ° C.",0.009 mg API/mg Solution
same,% API,[2]; [18],0.21%
same,API recovered,[2]; [18],2.12 mg
same,Solubility,"[2]; carrier PLURONIC 103 (Semisolid), T 45 ° C.",0.002 mg API/mg Solution
same,Solubility,"[2]; carrier PLURONIC F108 (Solid), T 70 ° C.",0.006 mg API/mg Solution
same,Solubility,"[2]; carrier PLURONIC L35 (Liquid), T 25 ° C.",0.000 mg API/mg Solution
same,Solubility,"[2]; carrier PLURONIC L43 (Liquid), T 25 ° C.",0.000 mg API/mg Solution
same,% API,[2]; [19],0.18%
same,API recovered,[2]; [19],3.64 mg
same,Solubility,"[2]; carrier PLURONIC L64 (Liquid), T 25 ° C.",0.000 mg API/mg Solution
same,Solubility,"[2]; carrier PLURONIC P85 (Semisolid), T 50 ° C.",0.002 mg API/mg Solution
same,Solubility,"[2]; carrier PLURONIC P105 (Semisolid), T 50 ° C.",0.002 mg API/mg Solution
same,% API,[2]; [20],0.29%
same,API recovered,[2]; [20],5.42 mg
same,% API,[2]; [21],0.16%
same,API recovered,[2]; [21],1.60 mg
same,Solubility,"[2]; carrier SOLUTOL HS15 (Semisolid), T 35 ° C.",0.007 mg API/mg Solution
same,Solubility,"[2]; carrier SPEZIOL TPGS (Semisolid), T 45 ° C.",0.002 mg API/mg Solution
same,% API,[2]; [22],1.00%
same,API recovered,[2]; [22],10.01 mg
same,Solubility,"[2]; carrier TWEEN 20 (Liquid), T 25 ° C.",0.008 mg API/mg Solution
same,Solubility,"[2]; carrier TWEEN 40 (Liquid), T 25 ° C.",0.007 mg API/mg Solution
same,Solubility,"[2]; carrier TWEEN 61 (Semisolid), T 45 ° C.",0.019 mg API/mg Solution
same,Solubility,"[2]; carrier TWEEN 65 (Liquid), T 45 ° C.",0.007 mg API/mg Solution
same,Solubility,"[2]; carrier TWEEN 81 (Liquid), T 25 ° C.",0.004 mg API/mg Solution
same,bendamustine hydrochloride recovered in a supersaturated solution in liquid or semisolid oily vehicles,[2]; selected carriers,< 1%
same,solubility in a range of organic solvents,[3],slightly or very slightly soluble
same,solubility in ethanol and methanol,[3],good solubility
same,solubility in water,[3]; pH of 2.0,sparingly soluble
same,bioavailability,[4],about 40%
